Data reported in the kinase profiling compilation of Christmann-Franck et al. (2016).

What was measured:
Test in all cases: KINOMEscan competition binding
Conditions in all cases: compound 10.0 µM
YES1 (human) = YES1 (human) (UniProt P07947)
IKBKE (human) = IKBKE (human) (UniProt Q14164)
PRKD3 (human) = PRKD3 (human) (UniProt O94806)
BMPR2 (human) = BMPR2 (human) (UniProt Q13873)
[1] = tested on: FLT3 (human), P36888 [ITD]
MAP3K7 (human) = MAP3K7 (human) (UniProt O43318)
MARK3 (human) = MARK3 (human) (UniProt P27448)
NTRK3 (human) = NTRK3 (human) (UniProt Q16288)
[2] = target: JAK1 JH1 catalytic (human) (UniProt P23458)
BMPR1B (human) = BMPR1B (human) (UniProt O00238)
STK16 (human) = STK16 (human) (UniProt O75716)
RPS6KA3 KD1 (human) = RPS6KA3 KD1 (human) (UniProt P51812)
CDK5 (human) = CDK5 (human) (UniProt Q00535)
[3] = target: TYK2 JH2 pseudokinase (human) (UniProt P29597)
LATS1 (human) = LATS1 (human) (UniProt O95835)
CDK14 (human) = CDK14 (human) (UniProt O94921)
MAP3K9 (human) = MAP3K9 (human) (UniProt P80192)
BLK (human) = BLK (human) (UniProt P51451)
FLT3 (human) = FLT3 (human) (UniProt P36888)
LIMK1 (human) = LIMK1 (human) (UniProt P53667)
CDK15 (human) = CDK15 (human) (UniProt Q96Q40)
PIK3CB (human) = PIK3CB (human) (UniProt P42338)
GSK3B (human) = GSK3B (human) (UniProt P49841)
STK4 (human) = STK4 (human) (UniProt Q13043)
STK11 (human) = STK11 (human) (UniProt Q15831)
CAMK1D (human) = CAMK1D (human) (UniProt Q8IU85)
DCLK1 (human) = DCLK1 (human) (UniProt O15075)
CDK7 (human) = CDK7 (human) (UniProt P50613)
BRSK2 (human) = BRSK2 (human) (UniProt Q8IWQ3)
BRSK1 (human) = BRSK1 (human) (UniProt Q8TDC3)
PLK1 (human) = PLK1 (human) (UniProt P53350)
LYN (human) = LYN (human) (UniProt P07948)
RPS6KA5 KD1 (human) = RPS6KA5 KD1 (human) (UniProt O75582)
CDK9 (human) = CDK9 (human) (UniProt P50750)
MAPK9 (human) = MAPK9 (human) (UniProt P45984)
FGFR2 (human) = FGFR2 (human) (UniProt P21802)
TSSK1B (human) = TSSK1B (human) (UniProt Q9BXA7)
MAP4K1 (human) = MAP4K1 (human) (UniProt Q92918)
BMPR1A (human) = BMPR1A (human) (UniProt P36894)
NEK2 (human) = NEK2 (human) (UniProt P51955)

Chain of CDK7 (human) (P50613 whole entry, looked up): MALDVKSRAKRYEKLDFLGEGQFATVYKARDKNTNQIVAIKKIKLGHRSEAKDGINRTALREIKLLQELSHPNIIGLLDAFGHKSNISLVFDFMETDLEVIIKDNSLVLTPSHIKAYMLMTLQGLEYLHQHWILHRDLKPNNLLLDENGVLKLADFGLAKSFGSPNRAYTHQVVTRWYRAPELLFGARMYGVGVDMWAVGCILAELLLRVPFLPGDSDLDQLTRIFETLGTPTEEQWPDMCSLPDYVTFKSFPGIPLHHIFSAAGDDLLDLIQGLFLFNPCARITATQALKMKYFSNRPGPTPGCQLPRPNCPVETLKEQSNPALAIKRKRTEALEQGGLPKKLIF
Chain of DCLK1 (human) (O15075 whole entry, looked up): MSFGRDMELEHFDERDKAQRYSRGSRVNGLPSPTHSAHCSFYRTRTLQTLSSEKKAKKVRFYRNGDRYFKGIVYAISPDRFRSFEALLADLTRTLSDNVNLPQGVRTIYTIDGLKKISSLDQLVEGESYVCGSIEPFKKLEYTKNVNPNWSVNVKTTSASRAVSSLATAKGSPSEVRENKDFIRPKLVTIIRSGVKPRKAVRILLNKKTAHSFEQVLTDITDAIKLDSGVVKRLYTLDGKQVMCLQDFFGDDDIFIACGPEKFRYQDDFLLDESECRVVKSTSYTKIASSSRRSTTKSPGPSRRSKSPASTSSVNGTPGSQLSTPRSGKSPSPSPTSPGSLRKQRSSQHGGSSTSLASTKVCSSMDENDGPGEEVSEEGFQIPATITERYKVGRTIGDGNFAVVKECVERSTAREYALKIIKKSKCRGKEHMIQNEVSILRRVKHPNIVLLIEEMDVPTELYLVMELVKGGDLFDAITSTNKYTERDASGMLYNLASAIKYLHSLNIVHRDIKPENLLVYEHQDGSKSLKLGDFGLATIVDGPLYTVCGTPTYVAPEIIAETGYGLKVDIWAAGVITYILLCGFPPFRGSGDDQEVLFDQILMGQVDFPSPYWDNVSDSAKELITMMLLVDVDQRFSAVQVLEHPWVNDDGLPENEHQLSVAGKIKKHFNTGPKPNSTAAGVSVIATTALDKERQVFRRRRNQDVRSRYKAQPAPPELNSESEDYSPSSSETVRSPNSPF
Chain of IKBKE (human) (Q14164 whole entry, looked up): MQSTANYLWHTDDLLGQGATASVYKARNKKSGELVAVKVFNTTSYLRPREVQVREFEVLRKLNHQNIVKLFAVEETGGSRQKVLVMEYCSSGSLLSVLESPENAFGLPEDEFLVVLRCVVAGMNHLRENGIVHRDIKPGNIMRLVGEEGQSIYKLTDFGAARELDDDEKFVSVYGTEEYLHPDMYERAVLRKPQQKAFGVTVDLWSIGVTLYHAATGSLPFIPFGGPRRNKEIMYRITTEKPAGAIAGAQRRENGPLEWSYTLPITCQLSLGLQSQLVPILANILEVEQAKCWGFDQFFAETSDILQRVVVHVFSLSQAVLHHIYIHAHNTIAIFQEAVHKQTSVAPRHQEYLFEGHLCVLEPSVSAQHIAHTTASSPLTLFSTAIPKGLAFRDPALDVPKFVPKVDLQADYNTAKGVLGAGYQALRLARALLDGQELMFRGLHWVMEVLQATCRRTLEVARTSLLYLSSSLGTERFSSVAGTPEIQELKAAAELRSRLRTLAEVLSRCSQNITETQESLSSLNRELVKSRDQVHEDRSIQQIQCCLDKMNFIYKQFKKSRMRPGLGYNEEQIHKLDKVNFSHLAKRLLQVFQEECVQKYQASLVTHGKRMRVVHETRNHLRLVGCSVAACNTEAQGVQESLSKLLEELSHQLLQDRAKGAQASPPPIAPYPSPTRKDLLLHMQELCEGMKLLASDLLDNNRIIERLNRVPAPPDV
Chain of FGFR2 (human) (P21802 whole entry, looked up): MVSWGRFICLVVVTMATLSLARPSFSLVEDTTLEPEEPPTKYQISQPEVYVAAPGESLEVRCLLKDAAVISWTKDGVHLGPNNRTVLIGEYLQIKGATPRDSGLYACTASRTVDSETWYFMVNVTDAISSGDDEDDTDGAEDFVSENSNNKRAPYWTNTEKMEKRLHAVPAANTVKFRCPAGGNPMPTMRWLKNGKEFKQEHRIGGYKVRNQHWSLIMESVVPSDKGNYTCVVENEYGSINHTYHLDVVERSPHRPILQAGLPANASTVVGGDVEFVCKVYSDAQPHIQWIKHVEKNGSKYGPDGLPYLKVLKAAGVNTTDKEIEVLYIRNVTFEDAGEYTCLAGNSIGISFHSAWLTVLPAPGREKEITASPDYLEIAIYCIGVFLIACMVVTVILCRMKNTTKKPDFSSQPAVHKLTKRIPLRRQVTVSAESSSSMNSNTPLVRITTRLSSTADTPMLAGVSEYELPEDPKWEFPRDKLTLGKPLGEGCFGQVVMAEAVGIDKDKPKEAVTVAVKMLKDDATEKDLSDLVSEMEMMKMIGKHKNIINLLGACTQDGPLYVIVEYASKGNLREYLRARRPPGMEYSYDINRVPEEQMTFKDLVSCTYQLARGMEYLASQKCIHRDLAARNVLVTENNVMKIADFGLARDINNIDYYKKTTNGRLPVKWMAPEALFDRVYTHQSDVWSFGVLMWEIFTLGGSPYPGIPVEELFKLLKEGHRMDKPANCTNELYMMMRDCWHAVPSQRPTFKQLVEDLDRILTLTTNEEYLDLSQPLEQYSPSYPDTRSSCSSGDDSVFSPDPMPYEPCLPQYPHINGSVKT
Chain of PRKD3 (human) (O94806 whole entry, looked up): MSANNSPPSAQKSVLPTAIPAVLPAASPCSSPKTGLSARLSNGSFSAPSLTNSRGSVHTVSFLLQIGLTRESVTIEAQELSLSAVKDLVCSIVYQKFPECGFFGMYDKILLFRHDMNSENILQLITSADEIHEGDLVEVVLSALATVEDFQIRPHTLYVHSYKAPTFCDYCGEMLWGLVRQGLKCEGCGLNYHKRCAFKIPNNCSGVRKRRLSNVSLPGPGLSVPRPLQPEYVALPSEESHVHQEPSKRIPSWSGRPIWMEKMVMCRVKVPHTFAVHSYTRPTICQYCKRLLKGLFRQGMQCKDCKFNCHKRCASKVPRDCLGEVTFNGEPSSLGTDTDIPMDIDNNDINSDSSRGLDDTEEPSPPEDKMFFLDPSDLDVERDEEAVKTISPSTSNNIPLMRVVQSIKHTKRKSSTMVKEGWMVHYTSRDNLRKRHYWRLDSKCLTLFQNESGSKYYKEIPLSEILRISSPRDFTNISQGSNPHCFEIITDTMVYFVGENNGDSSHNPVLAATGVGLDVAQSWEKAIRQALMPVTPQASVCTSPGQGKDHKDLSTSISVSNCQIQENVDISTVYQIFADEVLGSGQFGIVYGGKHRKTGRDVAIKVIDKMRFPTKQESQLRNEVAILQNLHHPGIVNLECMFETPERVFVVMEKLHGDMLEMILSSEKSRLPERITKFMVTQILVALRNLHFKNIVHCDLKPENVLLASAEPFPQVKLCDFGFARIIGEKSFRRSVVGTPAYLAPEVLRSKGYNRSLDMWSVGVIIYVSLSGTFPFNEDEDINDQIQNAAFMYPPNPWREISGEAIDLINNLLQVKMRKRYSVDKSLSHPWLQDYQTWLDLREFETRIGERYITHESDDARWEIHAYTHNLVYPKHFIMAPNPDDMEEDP
Chain of CDK15 (human) (Q96Q40 whole entry, looked up): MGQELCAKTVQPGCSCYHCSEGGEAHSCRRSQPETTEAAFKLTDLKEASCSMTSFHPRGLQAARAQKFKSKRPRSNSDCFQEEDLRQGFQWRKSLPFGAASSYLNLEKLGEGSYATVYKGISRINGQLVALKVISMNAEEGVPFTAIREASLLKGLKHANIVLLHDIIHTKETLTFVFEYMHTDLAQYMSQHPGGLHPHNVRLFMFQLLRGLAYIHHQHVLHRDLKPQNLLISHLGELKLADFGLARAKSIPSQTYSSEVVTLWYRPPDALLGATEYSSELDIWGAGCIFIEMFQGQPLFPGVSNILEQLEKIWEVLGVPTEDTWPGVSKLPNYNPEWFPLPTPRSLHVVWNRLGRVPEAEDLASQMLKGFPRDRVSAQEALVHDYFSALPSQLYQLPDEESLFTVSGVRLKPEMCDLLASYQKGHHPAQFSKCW
Chain of NTRK3 (human) (Q16288 whole entry, looked up): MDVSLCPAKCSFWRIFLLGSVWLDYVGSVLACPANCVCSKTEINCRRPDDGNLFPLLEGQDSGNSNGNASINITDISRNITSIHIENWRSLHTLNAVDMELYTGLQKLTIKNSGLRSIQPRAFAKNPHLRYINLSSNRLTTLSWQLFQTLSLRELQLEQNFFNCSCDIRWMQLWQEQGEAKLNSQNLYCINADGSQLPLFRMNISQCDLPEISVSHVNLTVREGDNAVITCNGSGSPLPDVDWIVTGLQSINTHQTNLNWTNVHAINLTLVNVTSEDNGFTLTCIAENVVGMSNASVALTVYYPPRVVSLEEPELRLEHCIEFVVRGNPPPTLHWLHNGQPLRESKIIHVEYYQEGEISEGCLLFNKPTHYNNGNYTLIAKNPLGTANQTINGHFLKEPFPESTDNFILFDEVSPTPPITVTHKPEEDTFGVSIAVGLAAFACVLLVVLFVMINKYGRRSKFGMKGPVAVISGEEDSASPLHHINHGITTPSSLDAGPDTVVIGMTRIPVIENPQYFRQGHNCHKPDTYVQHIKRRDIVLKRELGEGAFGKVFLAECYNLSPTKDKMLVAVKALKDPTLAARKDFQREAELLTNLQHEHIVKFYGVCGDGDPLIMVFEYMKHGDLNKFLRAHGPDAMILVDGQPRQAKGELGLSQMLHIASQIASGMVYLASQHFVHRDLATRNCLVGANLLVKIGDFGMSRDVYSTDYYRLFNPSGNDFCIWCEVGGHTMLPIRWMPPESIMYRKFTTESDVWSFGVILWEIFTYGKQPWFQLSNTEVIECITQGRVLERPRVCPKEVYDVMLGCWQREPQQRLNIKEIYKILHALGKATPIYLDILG

SMILES | kinase still bound, per cent of control (YES1 (human)) [%] | kinase still bound, per cent of control (IKBKE (human)) [%] | kinase still bound, per cent of control (PRKD3 (human)) [%] | kinase still bound, per cent of control (BMPR2 (human)) [%] | kinase still bound, per cent of control [1] [%] | kinase still bound, per cent of control (MAP3K7 (human)) [%] | kinase still bound, per cent of control (MARK3 (human)) [%] | kinase still bound, per cent of control (NTRK3 (human)) [%] | kinase still bound, per cent of control [2] [%] | kinase still bound, per cent of control (BMPR1B (human)) [%] | kinase still bound, per cent of control (STK16 (human)) [%] | kinase still bound, per cent of control (RPS6KA3 KD1 (human)) [%] | kinase still bound, per cent of control (CDK5 (human)) [%] | kinase still bound, per cent of control [3] [%] | kinase still bound, per cent of control (LATS1 (human)) [%] | kinase still bound, per cent of control (CDK14 (human)) [%] | kinase still bound, per cent of control (MAP3K9 (human)) [%] | kinase still bound, per cent of control (BLK (human)) [%] | kinase still bound, per cent of control (FLT3 (human)) [%] | kinase still bound, per cent of control (LIMK1 (human)) [%] | other results
O=C1Nc2ccc(I)cc2/C1=C/c1cc(Br)c(O)c(Br)c1 | 90 | 86 | 100 | 100 | 33 | 67 | 68 | 35 | 100 | 27 | 90 | 36 | 83 | 100 | 44 | 95 | 47 | 41 | 3.6 | 100 | kinase still bound, per cent of control (CDK15 (human)): 100%; kinase still bound, per cent of control (PIK3CB (human)): 100%; kinase still bound, per cent of control (GSK3B (human)): 91%; kinase still bound, per cent of control (STK4 (human)): 52%; kinase still bound, per cent of control (STK11 (human)): 84%; kinase still bound, per cent of control (CAMK1D (human)): 76%; kinase still bound, per cent of control (DCLK1 (human)): 86%; kinase still bound, per cent of control (CDK7 (human)): 67%; kinase still bound, per cent of control (BRSK2 (human)): 100%; kinase still bound, per cent of control (BRSK1 (human)): 85%; kinase still bound, per cent of control (PLK1 (human)): 100%; kinase still bound, per cent of control (LYN (human)): 86%; kinase still bound, per cent of control (RPS6KA5 KD1 (human)): 96%; kinase still bound, per cent of control (CDK9 (human)): 93%; kinase still bound, per cent of control (MAPK9 (human)): 72%; kinase still bound, per cent of control (FGFR2 (human)): 59%; kinase still bound, per cent of control (TSSK1B (human)): 65%; kinase still bound, per cent of control (MAP4K1 (human)): 71%; kinase still bound, per cent of control (BMPR1A (human)): 8.8%; kinase still bound, per cent of control (NEK2 (human)): 100%
COc1cc(C(=O)NC2CCN(C)CC2)ccc1Nc1ncc2c(n1)N(C1CCCC1)CCC(=O)N2C(C)C | 100 | 100 | 100 | 100 | 100 | 100 | 100 | 100 | 100 | 100 | 100 | 100 | 100 | 100 | 100 | 100 | 100 | 100 | 100 | 100 | kinase still bound, per cent of control (CDK15 (human)): 100%; kinase still bound, per cent of control (PIK3CB (human)): 100%; kinase still bound, per cent of control (GSK3B (human)): 100%; kinase still bound, per cent of control (STK4 (human)): 100%; kinase still bound, per cent of control (STK11 (human)): 100%; kinase still bound, per cent of control (CAMK1D (human)): 100%; kinase still bound, per cent of control (DCLK1 (human)): 100%; kinase still bound, per cent of control (CDK7 (human)): 100%; kinase still bound, per cent of control (BRSK2 (human)): 0%; kinase still bound, per cent of control (BRSK1 (human)): 100%; kinase still bound, per cent of control (PLK1 (human)): 17%; kinase still bound, per cent of control (LYN (human)): 100%; kinase still bound, per cent of control (RPS6KA5 KD1 (human)): 100%; kinase still bound, per cent of control (CDK9 (human)): 100%; kinase still bound, per cent of control (MAPK9 (human)): 100%; kinase still bound, per cent of control (FGFR2 (human)): 100%; kinase still bound, per cent of control (TSSK1B (human)): 100%; kinase still bound, per cent of control (MAP4K1 (human)): 100%; kinase still bound, per cent of control (BMPR1A (human)): 100%; kinase still bound, per cent of control (NEK2 (human)): 100%
C=CC(=O)Nc1cc(NC(=O)c2ccc(C)c(NC(=O)c3ccno3)c2)cc(C(F)(F)F)c1 | 46 | 100 | 100 | 100 | 99 | 98 | 67 | 100 | 100 | 100 | 100 | 96 | 90 | 100 | 100 | 93 | 98 | 97 | 100 | 100 | kinase still bound, per cent of control (CDK15 (human)): 93%; kinase still bound, per cent of control (PIK3CB (human)): 100%; kinase still bound, per cent of control (GSK3B (human)): 100%; kinase still bound, per cent of control (STK4 (human)): 99%; kinase still bound, per cent of control (STK11 (human)): 100%; kinase still bound, per cent of control (CAMK1D (human)): 83%; kinase still bound, per cent of control (DCLK1 (human)): 100%; kinase still bound, per cent of control (CDK7 (human)): 91%; kinase still bound, per cent of control (BRSK2 (human)): 100%; kinase still bound, per cent of control (BRSK1 (human)): 100%; kinase still bound, per cent of control (PLK1 (human)): 77%; kinase still bound, per cent of control (LYN (human)): 34%; kinase still bound, per cent of control (RPS6KA5 KD1 (human)): 82%; kinase still bound, per cent of control (CDK9 (human)): 100%; kinase still bound, per cent of control (MAPK9 (human)): 94%; kinase still bound, per cent of control (FGFR2 (human)): 99%; kinase still bound, per cent of control (TSSK1B (human)): 93%; kinase still bound, per cent of control (MAP4K1 (human)): 75%; kinase still bound, per cent of control (BMPR1A (human)): 100%; kinase still bound, per cent of control (NEK2 (human)): 100%
